Reference: patent US5352804A, “Isolation and structure of Halistatin 2” (Arizona Board of Regents, a body corporate, acting on …, priority 1993, dated 1994)
Like-named read-outs stand apart in the source and are kept apart here.

Assays:
Assay in all cases: NCI human tumor in vitro primary screen
Format in all cases: cell-based
SN12C = conditions: renal cancer
From the text: (§1) Only two hundred years ago, many diseases ravaged humankind. Many of these diseases now have been controlled or eradicated. In the development of the means to treat or control these diseases, work with the appropriate common experimental animals was of critical importance. With the various types of cancers, and with the HIV virus, such work is presently ongoing. The research for the treatment of various types of cancer is coordinated in the United States by the National Cancer Institute (NCI). NCI, as a government entity, has been charged with assisting anti-cancer research. To establish whether a substance has anti cancer activity, NCI has established a variety of protocols, one of which involves testing the candidate substance against a cell line panel containing 60 human tumor cell lines. This protocol has been verified and is generally accepted throughout the scientific community. This protocol and the established statistical means of evaluating the results obtained therefrom have been fully described in the literature. See Principles & Practice of Oncology PPO Updates, Volume 3, Number 10, Oct. 1989, by Michael R. Boyd, M.D., Ph.D., for an indepth description of the test protocol. The statistical analysis is explained in "Display and Analysis of Patterns of Differential Activity of Drugs Against Human Tumor Cell Lines: Development of Means Graph and COMPARE Algorithm" Journal of the National Cancer Institute Reports Vol. 81, No. 14, Pg. 1088, Jul. 14, 1989, by K. D. Paull et al. Both of these references are incorporated herein by this reference thereto.
(§2) Biological Testing; Data Display and Analysis; Screening Data Summary. Freshly isolated halistatin 2 was tested in the NCI's human tumor, disease-oriented in vitro primary screen, and data calculations performed. Table 3 is a composite prepared from mean graphs constructed from the averaged GI50 values from quadruplicate screenings of Halistatin 2.

MALME-3M = conditions: melanoma
From the text: as §1, §2

IGROV-1 = system: IGROV-1
From the text: as §1, §2

A549/ATCC = conditions: non-small cell lung cancer
From the text: as §1, §2

LXFL 529 = system: LXFL 529
From the text: as §1, §2

TK-10 = conditions: renal cancer
From the text: as §1, §2

HOP-62 = conditions: non-small cell lung cancer
From the text: as §1, §2

UACC-62 = conditions: melanoma
From the text: as §1, §2

OVCAR-3 = conditions: ovarian cancer
From the text: as §1, §2

SK-MEL-5 = conditions: melanoma
From the text: as §1, §2

HL-60TB = conditions: leukemia
From the text: as §1, §2

SF-268 = conditions: CNS cancer
From the text: as §1, §2

CAKI-1 = system: CAKI-1
From the text: as §1, §2

HCT-116 = conditions: colon cancer
From the text: as §1, §2

ACHN = conditions: renal cancer
From the text: as §1, §2

SF-295 = conditions: CNS cancer
From the text: as §1, §2

OVCAR-4 = conditions: ovarian cancer
From the text: as §1, §2

SK-MEL-28 = conditions: melanoma
From the text: as §1, §2

COLO 205 = conditions: colon cancer
From the text: as §1, §2

HT29 = conditions: HT-29, colon cancer
From the text: as §1, §2

SNB-75 = conditions: CNS cancer
From the text: as §1, §2

NCI-H23 = system: NCI-H23
From the text: as §1, §2

KM 20L2 = system: KM 20L2
From the text: as §1, §2

SW-620 = conditions: colon cancer
From the text: as §1, §2

[1] = read-out: Log10 GI50 (converted)
[2] = read-out: Log10 TGI (converted)
[3] = read-out: averaged negative log10 GI50 (converted)
[4] = non-small cell lung cancer, read-out: averaged negative log10 GI50 (converted)

`C=C1CC2CCC34CC5OC6C(O3)C3OC(CCC3OC6(O)C5O4)CC(=O)OC3C(CC4OC(CCC1O2)CC(C)C4=C)OC1CC2OC4(CC2OC1C3C)CC1OC2(CC(C)C3OC5CC(C(O)CO)OC5CC3O2)CC(C)C1O4` (stereo not drawn) [halistatin 2] gave a GI50 (SN12C; [1]) of 1.82 nM, an IC (TGI) (SN12C; [2]) of 10 nM and a GI50 (SN12C; [3]) of 1.82 nM. The GI50 (MALME-3M; [1]) was 0.229 nM, the IC (TGI) (MALME-3M; [2]) was 10 nM and the GI50 (MALME-3M; [3]) was 0.229 nM. The GI50 (IGROV-1; IGROV1, ovarian cancer, read-out: Log10 GI50 (converted)) was 0.891 nM, the IC (TGI) (IGROV-1; IGROV1, ovarian cancer, read-out: Log10 TGI (converted)) was 10 nM and the GI50 (IGROV-1; ovarian cancer, read-out: averaged negative log10 GI50 (converted)) was 0.891 nM. It also gave a GI50 (A549/ATCC; [1]) of 1.82 nM, an IC (TGI) (A549/ATCC; [2]) of 10 nM and a GI50 (A549/ATCC; [3]) of 1.82 nM. The GI50 (LXFL 529; LXFL529, non-small cell lung cancer, read-out: Log10 GI50 (converted)) was 0.447 nM, the IC (TGI) (LXFL 529; LXFL529, non-small cell lung cancer, read-out: Log10 TGI (converted)) was 10 nM and the GI50 (LXFL 529; [4]) was 0.447 nM. The GI50 (TK-10; [1]) was 5.5 nM, the IC (TGI) (TK-10; [2]) was 10 nM and the GI50 (TK-10; [3]) was 5.5 nM. It also gave a GI50 (HOP-62; [1]) of 0.692 nM, an IC (TGI) (HOP-62; [2]) of 7.59 nM and a GI50 (HOP-62; [3]) of 0.692 nM. It also gave a GI50 (UACC-62; [1]) of 0.339 nM, an IC (TGI) (UACC-62; [2]) of 10 nM and a GI50 (UACC-62; [3]) of 0.339 nM. It also gave a GI50 (OVCAR-3; [1]) of 0.282 nM, an IC (TGI) (OVCAR-3; [2]) of 1.58 nM and a GI50 (OVCAR-3; [3]) of 0.282 nM. It also gave a GI50 (SK-MEL-5; [1]) of 0.182 nM, an IC (TGI) (SK-MEL-5; [2]) of 1.82 nM and a GI50 (SK-MEL-5; [3]) of 0.182 nM. For the same compound, the GI50 (HL-60TB; HL-60(TB), read-out: Log10 GI50 (converted)) was 0.158 nM, the IC (TGI) (HL-60TB; HL-60(TB), read-out: Log10 TGI (converted)) was 1 nM and the GI50 (HL-60TB; HL-60TB, read-out: averaged negative log10 GI50 (converted)) was 0.158 nM. It also gave a GI50 (SF-268; [1]) of 1.82 nM, an IC (TGI) (SF-268; [2]) of 10 nM and a GI50 (SF-268; [3]) of 1.82 nM. It also gave a GI50 (CAKI-1; CAKl-1, renal cancer, read-out: Log10 GI50 (converted)) of 1.29 nM, an IC (TGI) (CAKI-1; CAKl-1, renal cancer, read-out: Log10 TGI (converted)) of 10 nM and a GI50 (CAKI-1; renal cancer, read-out: averaged negative log10 GI50 (converted)) of 1.29 nM. It also gave a GI50 (HCT-116; [1]) of 0.55 nM, an IC (TGI) (HCT-116; [2]) of 10 nM and a GI50 (HCT-116; [3]) of 0.55 nM. It also gave a GI50 (ACHN; [1]) of 4.37 nM, an IC (TGI) (ACHN; [2]) of 10 nM and a GI50 (ACHN; [3]) of 4.37 nM. The GI50 (SF-295; [1]) was 0.182 nM, the IC (TGI) (SF-295; [2]) was 5.25 nM and the GI50 (SF-295; [3]) was 0.182 nM. For the same compound, the GI50 (OVCAR-4; [1]) was 7.76 nM, the IC (TGI) (OVCAR-4; [2]) was 10 nM and the GI50 (OVCAR-4; [3]) was 7.76 nM. It also gave a GI50 (SK-MEL-28; [1]) of 1 nM, an IC (TGI) (SK-MEL-28; [2]) of 10 nM and a GI50 (SK-MEL-28; [3]) of 1 nM. The GI50 (COLO 205; [1]) was 0.219 nM, the IC (TGI) (COLO 205; [2]) was 1.51 nM and the GI50 (COLO 205; [3]) was 0.219 nM. It also gave a GI50 (HT29; [1]) of 0.457 nM, an IC (TGI) (HT29; [2]) of 3.72 nM and a GI50 (HT29; [3]) of 0.457 nM. It also gave a GI50 (SNB-75; [1]) of 0.269 nM, an IC (TGI) (SNB-75; [2]) of 10 nM and a GI50 (SNB-75; [3]) of 0.269 nM. It also gave a GI50 (NCI-H23; NCl-H23, non-small cell lung cancer, read-out: Log10 GI50 (converted)) of 0.661 nM, an IC (TGI) (NCI-H23; NCl-H23, non-small cell lung cancer, read-out: Log10 TGI (converted)) of 6.76 nM and a GI50 (NCI-H23; [4]) of 0.661 nM. The GI50 (KM 20L2; KM 20L2, colon cancer, read-out: averaged negative log10 GI50 (converted)) was 0.427 nM, the GI50 (KM 20L2; KM-20L2, printed KM2012, colon cancer, read-out: Log10 GI50 (converted)) was 0.427 nM and the IC (TGI) (KM 20L2; KM-20L2, printed KM2012, colon cancer, read-out: Log10 TGI (converted)) was 1.91 nM. The GI50 (SW-620; [1]) was 0.398 nM, the IC (TGI) (SW-620; [2]) was 10 nM and the GI50 (SW-620; [3]) was 0.398 nM.
